Measurements as given in patent US7504537B2, “Hydroxamic acid derivative and MMP inhibitor containing the same as active ingredient” (Dainippon Sumitomo Pharma Co., Ltd., priority 2001, dated 2009).

How the values were obtained:
Format in all cases: biochemical
[1] = molecular target: T1, MMP-3 (Homo sapiens, UniProt P08254); test: Test 1 Test on MMP-3 inhibiting activity (fluorogenic peptide substrate); settings: activated MMP-3, 37° C.; read-out: MMP-3 inhibition activity value
T1 construct: C-terminal truncated cDNA in which the cDNA encodes human prostromelysin; made in house; host or cells: E. coli
T1 sequence (P08254 100-272 limits assumed): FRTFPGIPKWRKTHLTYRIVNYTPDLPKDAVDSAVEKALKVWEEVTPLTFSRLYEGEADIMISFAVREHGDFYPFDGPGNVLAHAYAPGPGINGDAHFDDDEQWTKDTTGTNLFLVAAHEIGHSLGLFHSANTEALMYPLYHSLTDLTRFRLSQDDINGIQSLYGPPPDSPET
Protocol: Test 1 Test on MMP-3 Inhibiting Activity
C-terminal truncated cDNA in which the cDNA encodes human prostromelysin, was subcloned (proMMP-3, cDNA sequence in Nature, 348, 699-704 (1990)), was expressed in E. coli and then, the expressed protein was purified in accordance with the method described in Biochemistry 30, 6476-6483 (1991). proMMP-3 activation was carried out by treating with 1 mM 4-aminophenyl mercuric acetate for 60 minutes at 37° C.
Enzyme activity test was conducted by the method of C. G. Knight (FEBS Lett., 296(3), 263-266 (1992)).
(§1) A mixture of activated MMP-3 (20 nM, 10 μl), buffer solution (70 μl, pH 7.5 solution containing 100 mM Tris-HCl solution, 10 mM calcium chloride solution, 100 mM sodium chloride solution and 0.05% Brij-35 solution), MOCAc-Pro-Leu-Gly-Leu-A2pr(DNP)-Ala-Arg-NH2 in 0.1% DMSO solution (100 μM, 10 μl) and a test compound in DMSO solution was incubated for 1.5 hours at 37° C. The mixture was put on a 96 well-plate (100 μl/well) and the plate was cultured at 37° C. The enzyme activity in the presence of the compound was measured based on fluorescence intensity (λex 320 nm, λem 405 nm), and IC50 was calculated.

[2] = molecular target: T2, MMP-14 (MT1-MMP) (Homo sapiens, UniProt P50281); test: Test 5 MMP-14 (MT1-MMP) inhibiting activity test; settings: human recombinant MT1-MMP, 37° C.; read-out: MMP-14 inhibition activity value
T2 construct: purchased Biogenesis, supplied by Cosmobio (Nakarai Tesku)
Protocol: Test 5 MMP-14 (MTI-MMP) Inhibiting Activity Test
Human recombinant MTI-MMP used the product prepared by Biogenesis and supplied by Cosmobio (Nakarai Tesku).
An assay buffer solution (70 μl, pH 7.5 solution containing 0.1M Tris-HCl solution, 0.1M calcium chloride solution, 10 mM sodium chloride solution and 0.05% Brij-35 solution), 0.1 w/w % a compound in DMSO (10 μl), MMP substrate solution (MOCAc-Pro-Leu-Gly-Leu-A2pr(DNP)-Ala-Arg-NH2 (Peptide Lab.) diluted with the assay buffer solution (50 μM, 10 μl)) and human recombinant MT1-MMP (0.4 pg/10 μl/well) were well agitated under stirring. The enzyme activity of the mixture was measured based on fluorescence intensity (λex 320 nm/λem 405 nm) by a fluorescence reader. After the mixture was incubated at 37° C. for 0.5 hour, the fluorescence intensity (λex 320 nm/λem 405 nm) was measured every hour, and IC50 was calculated.
The inhibition value was calculated by withdrawing average value of blank well from fluorescence mean value of well in which MT1-MMP was added. As the blank was used the mixed solution prepared by adding assay buffer (10 μl) instead of MT1-MMP solution.

[3] = molecular target: T3, MMP-13 (Homo sapiens, UniProt P45452); test: Test 2 Test on MMP-13 inhibition activity (fluorogenic peptide substrate); settings: activated MMP-13, 37° C.
T3 construct: a fragment of 767 bp encoding original 84 amino acids of complete MMP-13 and encoding 164 amino acids; made in house; host or cells: E. coli BL21 (DE3), pET11a
Description: Test 2 Test on MMP-13 Inhibition Activity
In order to subcloning C-terminal truncated cDNA in which the cDNA encodes procollagenase-3 (proMMP-13) (J. Biol. Chem., 269(24), 16766-16773 (1994)), two synthesized oligonucleotide primer fragments: • (5′-[…]-3′ and 5′-[…]-3′: In former the sequence for specific NdeI site (under line) including first methionine is included, and in latter terminal codon and BamHI site (under lined) are included.) were used with human cartilage cell cDNA library for PCR. Due to these primers and Pfu DNA polymelase (STRATAGENE) for PCR, there was obtained a fragment of 767 bp encoding original 84 amino acids of complete MMP-13 and encoding 164 amino acids. The said fragment was cut out with digestion by NdeI and BamHI, and the fragment was annealed to NdeI site and BamHI site of pET11a (STRATAGENE). The recombinant plasmid was transformed into E. coli BL21 (DE3) and the bacteria were cultivated. The crude cell extract was prepared according to the method of Biochemistry. The said extract was dialyzed with 20 mM Tris-HCl (pH 7.2)/5 mM CaCl2/0.02% NaN3 solution, treated with SP-sepharose HP column (1.6×10 cm, Amasham-Pharmacia biotec), and the eluting was carried out by liner gradient from 0 to 0.3 m of sodium chloride solution (50 ml) (partially purified proMMP-13 was eluted at about 0.2M.) The eluted fraction was dialyzed with 20 mM Tris-HCl (pH 7.9)/5 mM CaCl2/200 mM (NH4)2SO4/0.02% NaN3 solution, treated with phenylsepharose HP column (1.6×5 cm, Amersham-Pharmacia biotec), and the eluting was carried out by liner gradient from 0.2M to 0M sulfuric acid ammonium solution (purified proMMP-13 was eluted at about 50 mM.). The eluted fraction was concentrated by YM-5 ultrafilter membrane, and activated by 4-aminophenyl mercuric acetate. Activated MMP-13 was treated with gel filtration chromatography in accordance with the method of Biochemistry to be separated from propeptide. Inhibiting Test Method
Enzyme activity test was carried out by the method of G. Knight (FEBS Lett., 296(3), 263-266 (1992)).
as §1, with “MMP-13” for “MMP-3”, “Briji-35” for “Brij-35”, “μl/wel),” for “μl/well)”, “incubated” for “cultured”

[4] = molecular target: MMP-9 (Homo sapiens, UniProt P14780); test: Test 4 MMP-9 inhibiting activity test (biotin labeled gelatin); settings: activated human MMP-9, biotin labeled gelatin; read-out: MMP-9 inhibition activity value
MMP-9, sequence (P14780 107-707 limits assumed): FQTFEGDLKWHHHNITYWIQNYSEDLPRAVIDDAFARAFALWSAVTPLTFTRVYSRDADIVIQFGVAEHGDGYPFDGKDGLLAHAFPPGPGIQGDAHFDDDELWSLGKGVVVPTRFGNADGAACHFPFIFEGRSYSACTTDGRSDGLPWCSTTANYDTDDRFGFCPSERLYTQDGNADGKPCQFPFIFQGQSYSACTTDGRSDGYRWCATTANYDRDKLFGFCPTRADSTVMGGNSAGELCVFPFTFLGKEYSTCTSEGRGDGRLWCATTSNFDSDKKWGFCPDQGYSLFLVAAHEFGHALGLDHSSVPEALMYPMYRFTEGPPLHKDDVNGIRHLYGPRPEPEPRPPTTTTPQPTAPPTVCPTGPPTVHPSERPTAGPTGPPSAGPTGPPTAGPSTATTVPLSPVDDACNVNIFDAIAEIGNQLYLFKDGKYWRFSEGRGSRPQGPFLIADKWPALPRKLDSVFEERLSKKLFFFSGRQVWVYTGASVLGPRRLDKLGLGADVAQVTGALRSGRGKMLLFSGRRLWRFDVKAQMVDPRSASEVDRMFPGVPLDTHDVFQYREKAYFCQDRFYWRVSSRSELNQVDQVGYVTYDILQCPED
Protocol: Test 4 MMP-9 Inhibiting Activity Test
A mixture of buffer solution (190 μl; pH 7.5 solution containing 50 mM Tris-HCl solution, 0.5 m sodium chloride solution and 5 mM calcium chloride solution), human MMP-9 (10 μl) and trypsin solution (20 μl; trypsin 3 mg in activated buffer (5 ml)) was incubated at 37° C. for 10 minutes. Thereto was added aprotinine solution (20 μl; aprotinine (3 mg) in buffer (5 ml)) and the mixture was incubated at 37° C. for 10 minutes, followed by addition of buffer (2 ml). The mixture was preserved under cooling with ice until use.
A mixture of DMSO solution (2 μl) containing definite concentration of the compound, biotin labeled gelatin (188 μl) and activated MMP-9 solution (10 μl) was put on a 96 well-assay plate (protein nonabsorbance type), well agitated, and incubated at 37° C. for 1 hour. This solution was transferred to Streptavidin-coating plate, and agitated at 15° C. to 30° C. for 30 minutes. And then the solution was washed with TTC buffer solution (200 μl) three times. Thereto was added Streptavidin-POD (200 μl) and the mixture was agitated at 15° C. to 25° C. for 60 minutes, followed by washing with TTC buffer (200 μl) three times. Then, ABTS solution (200 μl) was added thereto and after standing at room temperature for 40 minutes, furuorescence intensity was measured at 405 nm and IC50 was calculated.
In case of the above test, DMSO (2 μl) was used as a control instead of a sample solution. In the case of a blank, DMSO (2 μl) instead of the sample solution and the solution (10 μl) prepared in the same manner as preparation of […] but without adding 1.2 Uhuman MMP-9, instead of activated MMP-9 solution (10 μl), were used.

What does the source list for CC(C)CN(CC(=O)NO)S(=O)(=O)c1ccc(Oc2ccc(S(C)(=O)=O)cc2)cc1 [Example 5, N′^1′-Hydroxy-N′^2′-isobutyl-N′^2′-({4-[4-(methylsulfonyl)phenoxy]phenyl}sulfonyl)glycinamide]?
IC50 [1]: 15.4 nM; IC50 [2]: 105 nM; IC50 [3]: 1.3 nM; IC50 [4]: > 100 nM
